According to patent publication EP4603105A1, “PHARMACEUTICAL COMPOSITION CONTAINING CYCLIC COMPOUND HAVING SELECTIVE KRAS INHIBITORY EFFECT AGAINST HRAS AND NRAS” (CHUGAI SEIYAKU KABUSHIKI KAISHA, priority 2022, dated 2024):
pIC50: −log10 of the molar value. *1 amine or outer side, *2 acyl side, *3 side chain or, on linkers, in order; H or OH if unused. Where a SMILES comes first, the peptide text is derived from it. Bridges are numbered along the chain shown (N, C = ends). [ ]: non-standard residue; d: D form. The star is where a group is joined. hPhe(3-Cl-4-CF3) = N[C@@H](CCc1ccc(C(F)(F)F)c(Cl)c1)C(=O)O; NPrPhe(4-CF3) = CCCN[C@@H](Cc1ccc(C(F)(F)F)cc1)C(=O)O; X41 = CCCN([C@@H](Cc1ccc(OC)cc1)C(=O)[*:2])[*:1]; NMeGly(cPent) = CN[C@H](C(=O)O)C1CCCC1; Pro(4,4-F2) = O=C(O)[C@@H]1CC(F)(F)CN1; NMeGly(cBu) = CN[C@H](C(=O)O)C1CCC1; Hyp = O=C(O)[C@@H]1C[C@@H](O)CN1; NMeD = CN[C@@H](CC(=O)O)C(=O)O; NMeL = CN[C@@H](CC(C)C)C(=O)O; Morpholide = C1CN(*)CCO1; NMeA = CN[C@@H](C)C(=O)O; Ac5c = NC1(C(=O)O)CCCC1; Aze = O=C(O)[C@@H]1CCN1; Sar = CNCC(=O)O

How the values were obtained:
[1] = molecular target: GDP-bound NRAS wild-type protein (Homo sapiens, UniProt P01111); test: Binding to NRAS by surface plasmon resonance (SPR), KD and KD ratio to KRAS
In short: (§1)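 Running buffer contained 10 µM GDP and 10 mM MgCl2 to keep RAS in the GDP state, with 4% DMSO at pH 7.4. Compounds were flowed at 100 µL/min in 75 s steps of rising concentration over captured biotin-Avi RAS at 30°C. Sensorgrams were fitted 1:1 for KD.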

HRAS wild-type protein = HRAS wild-type protein (Homo sapiens, UniProt P01112); test: Binding to HRAS by surface plasmon resonance (SPR), KD and KD ratio to KRAS
In short: as §1

[2] = test system: human lung cancer strain NCI-H441; format: cell-based
In short: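 Step one: dispense the test compound in serial DMSO dilutions. Step three: add the reagent and measure […].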

[3] = ratio of the KD value with respect to GDP-bound NRAS wild-type protein to the KD value with respect to KRAS
[4] = ratio of the KD value with respect to HRAS wild-type protein to the KD value with respect to KRAS
[5] = ratio of KD for GDP-bound NRAS wild-type protein to KD for KRAS
[6] = ratio of KD for HRAS wild-type protein to KD for KRAS

GDP-bound NRAS wild-type protein, sequence (P01111 whole entry): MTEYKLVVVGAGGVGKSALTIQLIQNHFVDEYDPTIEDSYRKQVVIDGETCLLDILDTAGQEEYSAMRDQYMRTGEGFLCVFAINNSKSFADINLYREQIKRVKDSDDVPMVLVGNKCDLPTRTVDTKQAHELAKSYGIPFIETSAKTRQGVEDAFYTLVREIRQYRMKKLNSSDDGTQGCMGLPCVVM
HRAS wild-type protein, sequence (P01112 whole entry): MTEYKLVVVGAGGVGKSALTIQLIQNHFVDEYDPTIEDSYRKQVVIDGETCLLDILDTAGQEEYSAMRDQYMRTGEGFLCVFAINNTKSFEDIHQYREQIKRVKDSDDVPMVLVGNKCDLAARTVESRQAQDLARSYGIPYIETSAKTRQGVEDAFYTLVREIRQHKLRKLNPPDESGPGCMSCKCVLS

Compound	NRAS /KRAS [1, 3]	HRAS /KRAS (HRAS wild-type protein; [4])	pIC50 [2]	NRAS /KRAS [1, 5]	HRAS /KRAS (HRAS wild-type protein; [6])
CCO[C@@H]1C[C@H]2C(=O)NC3(CCCC3)C(=O)N(C)[C@@H](C3CCCC3)C(=O)N(C)[C@H](C(=O)N(C)C)CC(=O)N(C)[C@@H](CC(C)C)C(=O)N[C@@H]([C@@H](C)CC)C(=O)N(C)CC(=O)N(C)[C@H]3C/C=C\CCN(C3=O)[C@@H](Cc3ccc(C(F)(F)F)cc3)C(=O)N(C)CC(=O)N[C@@H](CCc3cc(F)c(Cl)c(F)c3)C(=O)N2C1 [PP2269]	A (a compound having 10 or more and less than 20 is denoted as A)	A (a compound having 10 or more and less than 20 is denoted as A)	7.70	–	–
C=CCC[C@H]1C(=O)N[C@@H]([C@@H](C)CC)C(=O)N(C)CC(=O)N(C)[C@H]2CCCCN(C2=O)[C@@H](Cc2ccc(C(F)(F)F)cc2)C(=O)N(C)CC(=O)N[C@@H](CCc2cc(F)c(C(F)(F)F)c(F)c2)C(=O)N2C[C@H](OCC)C[C@H]2C(=O)N[C@](C)(CC=C)C(=O)N(C)[C@@H](C2CCCC2)C(=O)N(C)[C@H](C(=O)N2CCOCC2)CC(=O)N1C [PP0875]	–	–	8.32	C (A compound having a KD ratio of 0.1 or more and less than 3 is denoted as C)	B (a compound having 3 or more and less than 10 is denoted as B)
CCCO[C@@H]1CCN2C(=O)[C@H](CCc3cc(F)c(C(F)(F)F)c(F)c3)NC(=O)CN(C)C(=O)[C@H](Cc3ccc(C(F)(F)F)cc3)N3CCCC[C@@H](C3=O)N(C)C(=O)CN(C)C(=O)[C@H]([C@@H](C)CC)NC(=O)[C@H](CC(C)C)N(C)C(=O)C[C@@H](C(=O)N3CCOCC3)N(C)C(=O)[C@H](C3CCCC3)N(C)C(=O)C3(CCC3)NC(=O)[C@H]12 [PP1080]	–	–	7.41	B (a compound having 3 or more and less than 10 is denoted as B)	B (a compound having 3 or more and less than 10 is denoted as B)
CCO[C@@H]1C[C@H]2C(=O)NC3(CCC3)C(=O)N(C)[C@@H](C3CCCC3)C(=O)N(C)[C@H](C(=O)N(C)C)CC(=O)N(C)[C@@H](CC)C(=O)N[C@@H]([C@@H](C)CC)C(=O)N(C)[C@@H](C)C(=O)N(C)[C@H]3C/C=C\CCN(C3=O)[C@@H](Cc3ccc(C(F)(F)F)cc3)C(=O)N(C)CC(=O)N[C@@H](CCc3cc(F)c(C(F)(F)F)c(F)c3)C(=O)N2C1 [PP1054]	–	–	6.33	A (a compound having 10 or more and less than 20 is denoted as A)	B (a compound having 3 or more and less than 10 is denoted as B)
CCCN1C(=O)[C@@H]2CCN2C(=O)[C@H](C)N(C)C(=O)[C@H]([C@@H](C)CC)NC(=O)[C@H](C2CCC2)N(C)C(=O)C[C@@H](C(=O)N2CCOCC2)N(C)C(=O)[C@H](C2CCCC2)N(C)C(=O)C2(CCCC2)NC(=O)[C@@H]2CC(F)(F)CN2C(=O)[C@H](CCc2ccc(C(F)(F)F)c(Cl)c2)NC(=O)CN(C)C(=O)[C@@H]1Cc1ccc(C(F)(F)F)cc1 [PP0204] ([NMeGly(cBu)]I[NMeA][Aze][NPrPhe(4-CF3)][Sar][hPhe(3-Cl-4-CF3)][Pro(4,4-F2)][Ac5c][NMeGly(cPent)][NMeD]-Morpholide; lactam N-11)	–	–	8.27	C (A compound having a KD ratio of 0.1 or more and less than 3 is denoted as C)	C (A compound having a KD ratio of 0.1 or more and less than 3 is denoted as C)
CCC(CC)[C@H]1C(=O)N(C)[C@H](C(=O)N(C)C)CC(=O)N(C)[C@@H](COC)C(=O)N[C@@H]([C@@H](C)CC)C(=O)N(C)CC(=O)N(C)[C@H]2C/C=C\CCN(C2=O)[C@@H](Cc2ccc(C(F)(F)F)cc2)C(=O)N(C)CC(=O)N[C@@H](CCc2cc(F)c(C(F)(F)F)c(F)c2)C(=O)N2CC[C@H]2C(=O)NC2(CC(C)(C)C2)C(=O)N1C [PP2918]	–	–	6.90	AA (a compound having 20 or more is denoted as AA)	A (a compound having 10 or more and less than 20 is denoted as A)
CCCN1C(=O)CN(C)C(=O)CN(C)C(=O)[C@H]([C@@H](C)CC)NC(=O)[C@H](CC(C)C)N(C)C(=O)C[C@@H](C(=O)N(C)C)NC(=O)[C@H](C2CCCC2)N(C)C(=O)C2(CCCC2)NC(=O)[C@@H]2C[C@@H](OCC)CN2C(=O)[C@H](CCc2ccc(C(F)(F)F)c(Cl)c2)NC(=O)CN(C)C(=O)[C@@H]1Cc1ccc(C(F)(F)F)cc1 [PP0359] ([NMeL]I[Sar][Sar][NPrPhe(4-CF3)][Sar][hPhe(3-Cl-4-CF3)][Hyp](Et)[Ac5c][NMeGly(cPent)]D-NMe2; lactam N-11)	–	–	7.48	B (a compound having 3 or more and less than 10 is denoted as B)	B (a compound having 3 or more and less than 10 is denoted as B)
CCO[C@@H]1C[C@H]2C(=O)NC3(CCC3)C(=O)N(C)[C@@H](C3CCCCC3)C(=O)N(C)[C@H](C(=O)N(C)C)CC(=O)N(C)[C@@H](CC)C(=O)N[C@@H]([C@@H](C)CC)C(=O)N(C)CC(=O)N(C)[C@H]3C/C=C\CCN(C3=O)[C@@H](Cc3ccc(C(F)(F)F)cc3)C(=O)N(C)CC(=O)N[C@@H](CCc3cc(F)c(C(F)(F)F)c(F)c3)C(=O)N2C1 [PP1086]	–	–	7.65	AA (a compound having 20 or more is denoted as AA)	A (a compound having 10 or more and less than 20 is denoted as A)
CCCN1C(=O)[C@@H]2CCN2C(=O)[C@H](C)N(C)C(=O)[C@H]([C@@H](C)CC)NC(=O)[C@H](CC(C)C)N(C)C(=O)C[C@@H](C(=O)N2CCOCC2)N(C)C(=O)[C@H](C2CCCC2)N(C)C(=O)C2(CCCC2)NC(=O)[C@@H]2CCCN2C(=O)[C@H](CCc2ccc(C(F)(F)F)c(Cl)c2)NC(=O)CN(C)C(=O)[C@@H]1Cc1ccc(OC)cc1 [PP0134] ([NMeL]I[NMeA][Aze][X41][Sar][hPhe(3-Cl-4-CF3)]P[Ac5c][NMeGly(cPent)][NMeD]-Morpholide; lactam N-11)	–	–	7.73	C (A compound having a KD ratio of 0.1 or more and less than 3 is denoted as C)	B (a compound having 3 or more and less than 10 is denoted as B)
CCCN1C(=O)[C@@H]2CCN2C(=O)CN(C)C(=O)[C@H]([C@@H](C)CC)NC(=O)[C@H](CC(C)C)N(C)C(=O)C[C@@H](C(=O)N2CCOCC2)N(C)C(=O)[C@H](C2CCCC2)N(C)C(=O)C2(CCCC2)NC(=O)[C@@H]2CC(F)(F)CN2C(=O)[C@H](CCc2ccc(C(F)(F)F)c(Cl)c2)NC(=O)CN(C)C(=O)[C@@H]1Cc1ccc(C(F)(F)F)cc1 [PP0408] ([NMeL]I[Sar][Aze][NPrPhe(4-CF3)][Sar][hPhe(3-Cl-4-CF3)][Pro(4,4-F2)][Ac5c][NMeGly(cPent)][NMeD]-Morpholide; lactam N-11)	C (A compound having a KD ratio of 0.1 or more and less than 3 is denoted as C)	B (a compound having 3 or more and less than 10 is denoted as B)	8.24	–	–
CCC[C@H]1C(=O)N[C@@H]([C@@H](C)CC)C(=O)N(C)CC(=O)N(C)[C@H]2C/C=C\CCN(C2=O)[C@@H](Cc2ccc(C)cc2)C(=O)N(C)CC(=O)N[C@@H](CCc2ccc(Cl)c(OC)c2)C(=O)N2C[C@H](OCC)C[C@H]2C(=O)NC2(CC(C)(C)C2)C(=O)N(C)[C@@H](C2CCCC2)C(=O)N(C)[C@H](C(=O)N(C)C)CC(=O)N1C [PP2790]	–	–	7.23	A (a compound having 10 or more and less than 20 is denoted as A)	A (a compound having 10 or more and less than 20 is denoted as A)
